Legend:
CDK9/Cyclin T1 = target: T1, CDK9/Cyclin T1 (Homo sapiens, UniProt P50750); assay: LanthaScreen Eu Kinase Binding Assay, CDK9/Cyclin T1; details: tracer 236, read-out: Affinity (Kd) CDK9/Cyclin T1
T1 construct: purchased Invitrogen
Method: (§1) This protocol describes how the LanthaScreen Eu Kinase Binding Assay was performed to determine dissociation constants (Kd) of compounds of general formula (I) and CDK/Cyclin complexes. The principle behind this assay is based upon the binding and displacement of an Alexa Fluor 647-labeled tracer, which binds to the active site of kinases. Binding of the tracer to the kinase is detected using a Eu-labeled antibody. Simultaneous binding of both the tracer and antibody to the kinase gives rise to a FRET-signal. Binding of an inhibitor to the kinase competes for binding with the tracer, resulting in a loss of FRET.
(§2) The compounds of general formula (I) summarized in Table 1 were diluted from a 10 mM DMSO stock solution 1:10 in a total volume of 15 μL DMSO. This compound predilution was then serial diluted 1:3 over 8 steps in DMSO and briefly spun down. Each compound solution was now diluted 1:33.33 in kinase buffer (HEPES: 20 mM, pH: 8.0; MgCl2: 10 mM; DTT: 1 mM; Brij-35: 0.01%), mixed thoroughly and spun down. For every sample, 5 μL of the diluted compound were mixed with 5 μL tracer working solution (e.g. 60 nM tracer 236 in kinase buffer for CDK2/Cyclin A) and 5 μL CDK/Cyclin/Anti-GST-AB-working solution (e.g. 15 nM CDK2/Cyclin A, 1:250 dilution of Anti-GST-AB in kinase buffer) in a well of a small volume 384 well plate (Corning Incorporated, Corning, N.Y., USA; order no. 3673). […] For positive controls, in each well 5 μL of DMSO working solution (3% DMSO diluted in kinase buffer) was mixed with 5 μL CDK/Cyclin/Anti-GST-AB-working solution: (e.g. 15 nM CDK2/Cyclin A, 1:250 dilution of Anti-GST-AB in kinase buffer) and 5 μL Tracer working solution (e.g. 60 nM Tracer 236 in kinase buffer for CDK2/Cyclin A). Positive and negative controls were calculated from at least 8 different sample wells. The 384 well plates were mixed in a Teleshaker plate mixer (Beckman Coulter, Brea, Calif., USA) at 2000 rpm for 40 sec, and incubated for 1 h at room temperature before reading. The FRET signal was measured at 340 nm excitation, 665 nm and 615 nm emission (for the kinase tracer and LanthaScreen Eu-AB, respectively) with an Envision spectrophotometer (Perkin Elmer, Waltham, Mass., USA) with 50 μs delay and 300 μs integration time. Kd values were determined from the sigmoidal dose response curves with the software Quattro Workflow (Quattro GmbH, Munich, Germany).

CDK9/Cyclin K = target: T2, CDK9/Cyclin K (Homo sapiens, UniProt P50750); assay: LanthaScreen Eu Kinase Binding Assay, CDK9/Cyclin K; details: tracer 236, read-out: Affinity (Kd) CDK9/Cyclin K
T2 construct: purchased Invitrogen
T2 sequence (P50750 whole entry): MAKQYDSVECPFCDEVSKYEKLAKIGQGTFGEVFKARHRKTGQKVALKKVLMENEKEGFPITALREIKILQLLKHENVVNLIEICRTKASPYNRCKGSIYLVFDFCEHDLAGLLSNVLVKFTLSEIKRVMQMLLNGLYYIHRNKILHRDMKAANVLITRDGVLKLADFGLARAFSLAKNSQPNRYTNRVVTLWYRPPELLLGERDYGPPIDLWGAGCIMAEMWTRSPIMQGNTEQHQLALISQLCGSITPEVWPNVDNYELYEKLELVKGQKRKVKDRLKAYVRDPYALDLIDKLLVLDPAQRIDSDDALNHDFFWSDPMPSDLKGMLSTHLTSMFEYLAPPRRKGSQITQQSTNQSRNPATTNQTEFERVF
T2 sequence (O75909 whole entry partner): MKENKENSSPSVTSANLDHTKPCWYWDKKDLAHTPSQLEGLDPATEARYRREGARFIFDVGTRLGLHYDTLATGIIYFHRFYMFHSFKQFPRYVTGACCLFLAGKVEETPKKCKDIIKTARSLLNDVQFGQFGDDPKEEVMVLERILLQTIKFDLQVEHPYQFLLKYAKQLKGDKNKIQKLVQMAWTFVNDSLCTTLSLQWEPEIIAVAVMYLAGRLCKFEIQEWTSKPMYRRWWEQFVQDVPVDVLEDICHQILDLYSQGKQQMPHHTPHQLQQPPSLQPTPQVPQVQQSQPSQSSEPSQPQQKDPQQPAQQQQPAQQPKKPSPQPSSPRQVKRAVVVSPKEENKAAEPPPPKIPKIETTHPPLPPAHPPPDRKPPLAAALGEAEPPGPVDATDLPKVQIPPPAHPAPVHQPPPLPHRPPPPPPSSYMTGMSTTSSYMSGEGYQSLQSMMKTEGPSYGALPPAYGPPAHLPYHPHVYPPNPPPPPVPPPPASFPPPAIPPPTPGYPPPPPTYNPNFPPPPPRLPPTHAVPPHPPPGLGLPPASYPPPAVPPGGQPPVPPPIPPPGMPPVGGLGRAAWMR
Method: as §1, §2

CDK8/Cyclin C = target: T3, CDK8/Cyclin C (Homo sapiens, UniProt P49336); assay: LanthaScreen Eu Kinase Binding Assay, CDK8; details: tracer 236, read-out: Affinity (Kd) CDK8
T3 construct: purchased Invitrogen
T3 sequence (P49336 whole entry): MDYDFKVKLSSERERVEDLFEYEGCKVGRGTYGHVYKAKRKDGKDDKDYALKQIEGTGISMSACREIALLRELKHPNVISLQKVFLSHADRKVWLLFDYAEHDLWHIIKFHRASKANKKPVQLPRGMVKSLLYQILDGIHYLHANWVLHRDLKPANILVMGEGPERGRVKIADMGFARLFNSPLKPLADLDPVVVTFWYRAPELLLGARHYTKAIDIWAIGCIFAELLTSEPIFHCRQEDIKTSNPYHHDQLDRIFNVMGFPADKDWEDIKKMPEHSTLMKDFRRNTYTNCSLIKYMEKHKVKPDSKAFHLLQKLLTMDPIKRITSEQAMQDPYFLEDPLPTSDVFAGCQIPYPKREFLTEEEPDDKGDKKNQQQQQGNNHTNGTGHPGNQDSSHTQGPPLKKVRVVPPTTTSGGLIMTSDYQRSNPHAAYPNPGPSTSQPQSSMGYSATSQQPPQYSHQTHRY
T3 sequence (P24863 whole entry partner): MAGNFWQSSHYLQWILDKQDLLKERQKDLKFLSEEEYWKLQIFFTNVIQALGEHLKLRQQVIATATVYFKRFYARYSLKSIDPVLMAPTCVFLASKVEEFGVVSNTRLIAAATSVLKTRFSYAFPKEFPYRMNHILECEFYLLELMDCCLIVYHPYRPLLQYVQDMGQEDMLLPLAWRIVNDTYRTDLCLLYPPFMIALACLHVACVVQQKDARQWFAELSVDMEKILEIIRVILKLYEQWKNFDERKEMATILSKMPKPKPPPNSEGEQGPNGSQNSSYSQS
Method: as §1, §2

CDK7/CyclinH/Mat1 = target: T4, CDK7/CyclinH/Mat1 (Homo sapiens, UniProt P50613); assay: LanthaScreen Eu Kinase Binding Assay, CDK7; details: tracer 236, read-out: Affinity (Kd) CDK7
T4 construct: purchased Carna Biosciences
T4 sequence (P50613 whole entry): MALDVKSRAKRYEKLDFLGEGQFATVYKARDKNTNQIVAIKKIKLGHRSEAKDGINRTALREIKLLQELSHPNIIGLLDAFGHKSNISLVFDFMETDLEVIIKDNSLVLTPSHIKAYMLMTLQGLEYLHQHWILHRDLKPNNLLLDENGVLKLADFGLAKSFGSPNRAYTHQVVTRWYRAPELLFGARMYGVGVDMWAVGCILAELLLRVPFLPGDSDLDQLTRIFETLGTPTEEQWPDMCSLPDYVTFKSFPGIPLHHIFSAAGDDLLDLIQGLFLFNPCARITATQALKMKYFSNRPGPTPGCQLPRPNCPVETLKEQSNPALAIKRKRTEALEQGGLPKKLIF
T4 sequence (P51946 whole entry partner): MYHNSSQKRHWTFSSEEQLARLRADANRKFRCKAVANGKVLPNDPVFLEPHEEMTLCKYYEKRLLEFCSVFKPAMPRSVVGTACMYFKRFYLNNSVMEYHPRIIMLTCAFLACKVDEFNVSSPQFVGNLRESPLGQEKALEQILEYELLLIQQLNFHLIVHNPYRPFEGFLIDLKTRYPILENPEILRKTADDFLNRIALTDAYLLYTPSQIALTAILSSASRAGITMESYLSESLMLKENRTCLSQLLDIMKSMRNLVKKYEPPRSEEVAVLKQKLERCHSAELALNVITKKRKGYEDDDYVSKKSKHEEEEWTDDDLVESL
T4 sequence (P51948 whole entry partner): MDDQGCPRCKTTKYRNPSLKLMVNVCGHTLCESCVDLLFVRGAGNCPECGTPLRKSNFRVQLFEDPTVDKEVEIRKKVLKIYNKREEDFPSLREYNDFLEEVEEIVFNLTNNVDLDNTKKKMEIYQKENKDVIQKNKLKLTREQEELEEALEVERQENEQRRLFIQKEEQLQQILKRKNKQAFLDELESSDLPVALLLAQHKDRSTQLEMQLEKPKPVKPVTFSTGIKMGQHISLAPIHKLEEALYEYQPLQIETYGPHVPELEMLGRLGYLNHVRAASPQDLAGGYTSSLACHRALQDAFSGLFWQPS
Method: as §1, §2

CDK2/CyclinA = target: T5, CDK2/CyclinA (Homo sapiens, UniProt P24941); assay: LanthaScreen Eu Kinase Binding Assay, CDK2; details: tracer 236, read-out: Affinity (Kd) CDK2
T5 construct: purchased Proqinase
Method: as §1, §2

[1] = tested on: LPS-induced TNF alpha release in PBMCs; assay: TNF alpha release assay; assay type: cell-based; details: Homo sapiens, PBMC, 6 h, 1 μg/mL LPS
Method: Freshly isolated peripheral blood mononuclear cells (PBMCs) were seeded in 96-well cell culture plates with 200,000 cells in 100 μl cell culture medium (DMEM cell culture medium+glutamine from PAN Biotech GmbH, Aidenbach, Germany) supplemented with 10% fetal calf serum (PAA Laboratories GmbH, Pasching, Austria) per well and incubated overnight at 37° C., 5% CO2. To each well, 100 μL cell culture medium with 2× concentrated test compounds diluted from 10 mM DMSO stocks, or 100 μL DMEM with 0.4% DMSO for control wells, was added. The compounds of general formula (I) summarized in Table 6 were used in this assay. After incubation for 1 h at 37° C., 5% CO2, cells were stimulated with 1 μg/mL LPS (Lipopolysaccharides, Sigma, catalog #L4391-1MG; 1 mg/ml stock solution), or left untreated for negative controls, and plates were incubated for 6 h at 37° C./5% CO2. The cell culture plates were centrifuged at 2000 rpm for 5 minutes, and supernatants were transferred to fresh 96-well polypropylene plates. 25 µL of supernatants were transferred into 96-well-plates of the human TNF alpha-tissue culture kit (Meso Scale Discovery, Gaithersburg, Md., USA), and manufacturer's instructions were followed for analysis of TNF alpha levels. Chemoluminescence was measured in the Mesoscale Sector Imager, and EC50 values were calculated with the software Excel Fit (IDBS, Guildford, UK) from 2-fold dilution series comprising at least 6 concentrations in duplicates.

[2] = tested on: NF-kappaB reporter gene activation in HEK293 cells; assay: NF-kappaB reporter assay; assay type: cell-based; details: Homo sapiens, 20 ng/ml TNF alpha, 5 h
Method: Cells were maintained in RPMI cell culture medium+glutamine (PAN Biotech GmbH, Aidenbach, Germany) supplemented with 10% fetal calf serum (PAA Laboratories GmbH, Pasching, Austria) and grown at 37° C., 5% CO2. HEK293 cells grown to 50% confluence were transfected with the Amaxa® Cell Line Nucleofector® Kit V (Lonza, Basel, Switzerland, catalog #VCA-1003). Transfections were performed according to manufacturer's optimized protocol for transfection of HEK293 cells. In brief, 2×10^5 cells were transfected with 5 μg highly purified plasmid DNA. Cells were transfected with a NF-kappa B reporter plasmid (pNFkBluc), pTALluc for control, or pMAXGFP for transfection control. After transfection, cells were taken up in 500 μL RPMI1640 cell culture medium, incubated for 1 h at 37° C., and 4.5 ml DMEM without phenol red were added per transfection. Transfected cells were seeded in 96 well plates (Greiner Bio-One, Frickenhausen, Germany, catalog #655098) with 100 μL cell suspension per well and incubated for 48 h. To each well, 100 μL DMEM with 2× concentrated compound diluted from 10 mM DMSO stocks, or 100 μL DMEM with 0.4% DMSO for control wells, was added. The compounds of general formula (I) summarized in Table 6 were used in this assay. Cells were stimulated with 20 ng/ml TNF alpha, and plates were incubated for 5 h at 37° C./5% CO2. Cell culture supernatants were removed to leave 100 μl medium per well, followed by addition of 100 μl Bright Glo luciferase assay reagent (Promega, Madison, Wis., USA, catalog #E2620), and shaking for 5 minutes in the dark. Luminescence was measured with a Victor Photospectrometer (Perkin Elmer, Waltham, Mass., USA). […], values were calculated with the software Excel Fit (IDBS, Guildford, UK) from 2-fold dilution series comprising at least 10 concentrations in duplicates.

T1 sequence (P50750 whole entry): as the sequence (P50750 whole entry) above
T1 sequence (O60563 whole entry partner): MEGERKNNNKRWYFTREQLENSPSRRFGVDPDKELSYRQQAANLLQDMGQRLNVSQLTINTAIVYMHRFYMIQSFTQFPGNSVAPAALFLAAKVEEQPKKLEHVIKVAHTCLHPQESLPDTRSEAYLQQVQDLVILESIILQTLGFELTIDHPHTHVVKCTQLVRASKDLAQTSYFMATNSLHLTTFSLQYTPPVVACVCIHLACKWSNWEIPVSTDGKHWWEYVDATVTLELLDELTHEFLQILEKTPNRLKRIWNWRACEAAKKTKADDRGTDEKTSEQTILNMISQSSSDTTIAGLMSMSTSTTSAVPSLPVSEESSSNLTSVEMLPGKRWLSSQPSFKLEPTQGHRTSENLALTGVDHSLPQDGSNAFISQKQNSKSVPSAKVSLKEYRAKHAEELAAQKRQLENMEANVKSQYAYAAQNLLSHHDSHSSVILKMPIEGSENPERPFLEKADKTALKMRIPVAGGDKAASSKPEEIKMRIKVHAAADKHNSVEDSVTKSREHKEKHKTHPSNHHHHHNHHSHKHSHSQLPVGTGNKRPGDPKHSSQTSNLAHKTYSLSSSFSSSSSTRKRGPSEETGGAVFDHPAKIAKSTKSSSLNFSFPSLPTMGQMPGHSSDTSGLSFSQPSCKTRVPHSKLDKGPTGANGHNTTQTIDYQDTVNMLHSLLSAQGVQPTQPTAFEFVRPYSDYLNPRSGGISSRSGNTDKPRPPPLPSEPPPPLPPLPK

Kd (CDK9/Cyclin T1): 0.478 µM
Kd (CDK9/Cyclin K): 0.159 µM
Kd (CDK8/Cyclin C): > 10 µM
Kd (CDK7/CyclinH/Mat1): > 30 µM
Kd (CDK2/CyclinA): 2.36 µM
Compound: COc1ccccc1-c1ncnc(Nc2cccc(NC(=O)Nc3ccccc3)c2)n1 [Compound N1, N-[3-((4-(2-Methoxyphenyl)-1,3,5-triazin-2-yl)amino)phenyl]-N′-phenyl-urea]
IC50 [1]: 6.71 µM
IC50 [2]: 18.4 µM
